Tests used:
[1] = tested on: Human immunodeficiency virus 1; experiment: Ratio of Ki for HIV-1 protease I50V mutant to Ki for HIV-1 wildtype protease
[2] = molecular target: Human immunodeficiency virus type 1 protease (Human immunodeficiency virus 1, UniProt Q72874, R8Q); experiment: Inhibition of HIV-1 protease R8Q mutant using Abz-Thr-Ile-Nle-p-nitro-Phe-Gln-Arg-NH2 as substrate incubated for 5 mins prior to substrate addition measured for 5 mins by fluorescence assay
[3] = molecular target: Human immunodeficiency virus type 1 protease (Human immunodeficiency virus 1, UniProt Q72874, D30N); experiment: Inhibition of HIV-1 protease D30N mutant using Abz-Thr-Ile-Nle-p-nitro-Phe-Gln-Arg-NH2 as substrate incubated for 5 mins prior to substrate addition measured for 5 mins by fluorescence assay
[4] = tested on: Human immunodeficiency virus 1; experiment: Ratio of Ki for HIV-1 protease R8Q mutant to Ki for HIV-1 wildtype protease
Protease = Protease (Human immunodeficiency virus 1, UniProt Q9YQ12); experiment: Inhibition of HIV-1 wildtype protease using Abz-Thr-Ile-Nle-p-nitro-Phe-Gln-Arg-NH2 as substrate incubated for 5 mins prior to substrate addition measured for 5 mins by fluorescence assay
[5] = tested on: Human immunodeficiency virus 1; experiment: Ratio of Ki for HIV-1protease I54M mutant to Ki for HIV-1 wildtype protease
[6] = molecular target: Human immunodeficiency virus type 1 protease (Human immunodeficiency virus 1, UniProt Q72874, I50V); experiment: Inhibition of HIV-1 protease I50V mutant using Abz-Thr-Ile-Nle-p-nitro-Phe-Gln-Arg-NH2 as substrate incubated for 5 mins prior to substrate addition measured for 5 mins by fluorescence assay
[7] = tested on: Human immunodeficiency virus 1; experiment: Ratio of Ki for HIV-1 protease D30N mutant to Ki for HIV-1 wildtype protease
[8] = molecular target: Human immunodeficiency virus type 1 protease (Human immunodeficiency virus 1, UniProt Q72874, I54M); experiment: Inhibition of HIV-1 protease I54M mutant using Abz-Thr-Ile-Nle-p-nitro-Phe-Gln-Arg-NH2 as substrate incubated for 5 mins prior to substrate addition measured for 5 mins by fluorescence assay
[9] = tested on: Human immunodeficiency virus 1; experiment: Ratio of Ki for HIV-1 protease V82A mutant to Ki for HIV-1 wildtype protease
[10] = molecular target: Human immunodeficiency virus type 1 protease (Human immunodeficiency virus 1, UniProt Q72874, V82A); experiment: Inhibition of HIV-1 protease V82A mutant using Abz-Thr-Ile-Nle-p-nitro-Phe-Gln-Arg-NH2 as substrate incubated for 5 mins prior to substrate addition measured for 5 mins by fluorescence assay

Sequence of Protease (Q9YQ12 whole entry): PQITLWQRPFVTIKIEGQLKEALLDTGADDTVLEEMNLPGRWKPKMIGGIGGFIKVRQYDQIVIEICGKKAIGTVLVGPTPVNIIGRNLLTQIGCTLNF

COc1ccc(S(=O)(=O)N(CC(C)C)C[C@@H](O)[C@H](Cc2ccccc2)NC(=O)O[C@H]2CO[C@H]3O[C@@H]4OCC[C@@H]4[C@H]32)cc1
Ratio Ki [1]: 60 | Ki [2]: 1.2 nM | Ki [3]: 8.9 nM | Ratio Ki [4]: 2 | Ki (Protease): 0.5 nM | Ratio Ki [5]: 7 | Ki [6]: 30.9 nM | Ratio Ki [7]: 18 | Ki [8]: 3.5 nM | Ratio Ki [9]: 6 | Ki [10]: 3.2 nM

From ChEMBL document CHEMBL2311291, “Novel P2 tris-tetrahydrofuran group in antiviral compound 1 (GRL-0519) fills the S2 binding pocket of selected mutants of HIV-1 protease” (J Med Chem, 2013)
